Assays:
[1] = tested on: human foreskin fibroblasts (HFF-1, ATCC); test: Collagen gel contraction induced by TGF-β1; type: cell-based; conditions: HFF-1 cells and bovine type I collagen; TGF-β1 (10 ng/ml); 72 hours; FIG. 7
Excerpt: In order to confirm the effect of the compounds of Synthetic examples on differentiation of fibroblasts into myofibroblasts, the inhibitory effect of the compounds of Synthetic examples on the phenomenon of contraction of gel induced by interaction of human foreskin fibroblasts (HFF-1, ATCC) and collagen was observed.
The mixed solution of the HFF-1 cells and collagen (bovine type I collagen) prepared at a concentration of 3×10^6 cells/ml was aliquoted in a 24 well plate, respectively, and then cultured under the condition of 5% CO2, 37 °C for 1 hour to induce gel polymerization. Then, after suspending the gel attached on the plate from the plate using a spoon, a medium comprising TGF-β1 and Synthetic example compounds was added to each well. After culturing for 72 hours, the Synthetic example compounds were treated by 10, 20, 30, 40, 60 and 80 µM to measure the size of the gel, and thereby, the degree of contraction of the gel by drug treatment was confirmed.

IL-8 = test: Expression of IL-8 in pancreatic cancer associated fibroblasts (ELISA); type: cell-based, human; conditions: P.CAF cells; compounds 10, 20, 30, 40, 60 and 80 µM for 48 hours; FIG. 6
Protocol: (§1) In order to confirm the effect of the compounds of Synthetic examples of the present invention on inflammation reaction in cancer associated fibroblasts, whether the expression of IL6 and IL8 was inhibited by the compounds of Synthetic examples in pancreatic cancer associated fibroblasts (PCAF) was observed.
(§2) After inoculating 1.5×10^5 cells in a 6 well plate and then culturing in P.CAF complete media for 48 hours, the compounds of Synthetic examples were treated by 10, 20, 30, 40, 60 and 80 µM for 48 hours according to each condition, and then the expression of IL-6 and IL-8 was confirmed by performing ELISA with Quantkine ELISA kit (R&D systems) as follows.
(§3) 100 µl of the culture solution in which the compounds of Synthetic examples were treated for 48 hours was added to the microplate strip for analysis including a 100 µl assay diluent and left at a room temperature for 2 hours and then the contents were removed, and then it was washed with 400 µl wash buffer 4 times. 200 µl of a human IL-6 or IL-8 conjugate was added and left at a room temperature for 2 hours and then the contents were removed, and then it was washed with 400 µl wash buffer 4 times. 200 µl of substrate solution was added and left at a room temperature for 20 minutes and then 50 µl of stop solution was added, and the absorbance at a wavelength of 450nm was measured within 30 minutes to confirm the expression level of IL-6 and IL-8.

IL-6 = test: Expression of IL-6 in pancreatic cancer associated fibroblasts (ELISA); type: cell-based, human; conditions: P.CAF cells; compounds 10, 20, 30, 40, 60 and 80 µM for 48 hours; FIG. 5
Protocol: as §1, §2, §3

[2] = tested on: N27 (rat dopaminergic neural cell, Sigma) cells; test: ROS production induced by alpha-synuclein preformed fibril (PFF) in dopaminergic neural cells (CellROX-Deep Red); type: cell-based; conditions: 0.001 µM, 24 hours, FIG. 2
Protocol: In order to confirm the effect of the compounds of Synthetic examples on ROS production from dopaminergic neural cells, ROS production was induced by alpha-synuclein preformed fibril (PFF) stimulation on N27 (rat dopaminergic neural cell, Sigma) cells and under this condition, the inhibitory effect of ROS production of the compounds of Synthetic examples was observed.
The N27 cells were cultured in RPMI medium containing 10% FBS, 1 µM angiotensin II, and the prepared cells were aliquoted at a concentration of 4×10^3 cells/well on a 6-well plate. The ROS production stimulus, PFF (preformed fibril) and the compounds of Synthetic examples were treated to the cells. After treating the compounds of Synthetic examples for 24 hours, fluorescence of each well was measured using CellROX-Deep Red reagent, thereby confirming the degree of ROS production.

[3] = tested on: LX-2 (human hepatic stellate cells); test: ROS production induced by PMA in LX-2 cells; type: cell-based; conditions: FIG. 1
Excerpt: (§4) In order to confirm the effect of the compounds of Synthetic examples on ROS production from fibroblasts and specific substrate cells, ROS production was induced by stimulation of PMA (phorbol 12-myristate 13-acetate), TGF-β1, palmitate or high concentration-glucose, or the like, in HL-60 cells differentiated into neutrophil cells by DMSO treatment, NHLF (normal human lung fibroblast, Lonza), LX-2 (human hepatic stellate cells, Sigma), ARPE19 (human retinal pigment epithelial cell, ATCC), and KEL-FIB (Keloid fibroblast, ATCC) cells, and under this condition, the inhibitory effect of ROS production of the compounds of Synthetic examples was observed.
(§5) The NHLF (normal human lung fibroblast, Lonza), LX-2 (human hepatic stellate cells, Sigma), ARPE19 (human retinal pigment epithelial cell, ATCC), KEL-FIB (keloid fibroblast, ATCC) cells were suspended in a culture medium containing 10% FBS and aliquoted on a 96 well plate and then cultured under the condition of 5% CO2, 37°C for 24 hours. After pre-treating the compounds of Synthetic examples at a concentration of 10, 20, 30, 40, 60 and 80 µM for 30 minutes to 1 hour, the ROS stimulus was treated to each well containing the cells and drug. After additional culturing for 48 hours, the ROS production level was confirmed using L-012 or DCF-DA.

[4] = tested on: NHLF (normal human lung fibroblast); test: ROS production induced by PMA in NHLF cells; type: cell-based; conditions: FIG. 1
Excerpt: as §4, §5

[5] = tested on: alpha-synuclein preformed fibril (PFF) injection Parkinson's disease mouse model; test: Brain damage treatment effect in PFF injection Parkinson's disease mouse model; type: in vivo, C57Bl/6 mice; conditions: 25 mg/kg orally once a day for 7 weeks
Protocol: In order to test the effect for preventing or treating brain disease or disorder of the compounds of Synthetic examples, it was evaluated using an alpha-synuclein preformed fibril (PFF) injection Parkinson's disease mouse model.
C57Bl/6 mice were used, and all the mice were maintained under the standard condition. The experiment was conducted by dividing the experimental animals into a normal control group in which distilled water was orally administered (negative control), an alpha-synuclein preformed fibril (PFF) injection Parkinson's disease induction group (vehicle control), and an experimental group in which the compound of Synthetic example 16 of 25 mg/kg was orally administered into the alpha-synuclein preformed fibril (PFF) injection Parkinson's induction group daily (Synthetic example) with 8 animals in each group. For the normal control group, physiological saline solution was administered, and the Synthetic example compound was orally administered once a day for 7 weeks, and then a behavior change experiment and a histopathological experiment were performed.
The behavior change was analyzed by Rota rod, pole test and hindlimb clasping, and the average value of the 3 experiments per each animal was measured. […]

SMILES	contraction of the gel induced by TGF-β1 [1]	IL-8 expressed in P.CAF (IL-8)	IL-6 expressed in P.CAF (IL-6)	ROS production induced by PFF [2]	other results
CN(Cc1ccc(F)cc1F)C1CCc2nn(-c3ccccn3)c(O)c2C1 (stereo not drawn) [Compound 5, 5-[(2,4-Difluorobenzyl)methylamino]-2-(pyridin-2-yl)-4,5,6,7-tetrahydro-2H-indazol-3-ol]	effectively inhibited	effectively inhibited	effectively inhibited		
COc1cccc(CN(C)C2CCc3nn(-c4ccccn4)c(O)c3C2)c1 (stereo not drawn) [Compound 13, 5-[(3-Methoxybenzyl)methylamino]-2-(pyridin-2-yl)-4,5,6,7-tetrahydro-2H-indazol-3-ol]	effectively inhibited				
O=C(C1CC1)N1CCN(C2CCc3nn(-c4ccccn4)c(O)c3C2)CC1 (stereo not drawn) [Compound 38, Cyclopropyl[4-(3-hydroxy-2-(pyridin-2-yl)-4,5,6,7-tetrahydro-2-indazol-5-yl)piperazin-1-yl]methanone]	effectively inhibited	effectively inhibited	effectively inhibited		
CN1CCN(C2CCc3nn(-c4ccc(C(F)(F)F)cn4)c(O)c3C2)CC1 (stereo not drawn) [Compound 82, 5-(4-Methylpiperazin-1-yl)-2-(5-(trifluoromethyl)pyridin-2-yl)-4,5,6,7-tetrahydro-2H-indazol-3-ol]				effectively inhibited	
CN(Cc1ccc2ncccc2c1)C1CCc2nn(-c3ccccn3)c(O)c2C1 (stereo not drawn) [Compound 63, 5-[Methyl(quinolin-6-ylmethyl)amino]-2-(pyridin-2-yl)-4,5,6,7-tetrahydro-2H-indazol-3-ol]	effectively inhibited	effectively inhibited	effectively inhibited		
OCCOCCN1CCN(C2CCc3nn(-c4ccccn4)c(O)c3C2)CC1 (stereo not drawn) [Compound 17]					ROS production induced by PMA [3]: inhibited; ROS production induced by PMA [4]: inhibited
CN(Cc1cc2ccccc2cn1)C1CCc2nn(-c3ccccn3)c(O)c2C1 (stereo not drawn) [Compound 62, 5-[(Isoquinolin-3-ylmethyl)methylamino]-2-(pyridin-2-yl)-4,5,6,7-tetrahydro-2H-indazol-3-ol]	effectively inhibited	effectively inhibited	effectively inhibited		
Oc1c2c(nn1-c1ccccn1)CCC(Nc1ccc(F)c(F)c1)C2 (stereo not drawn) [Compound 32, 5-(3,4-Difluorophenylamino)-2-(pyridin-2-yl)-4,5,6,7-tetrahydro-2H-indazol-3-ol]				effectively inhibited	
Oc1c2c(nn1-c1ccccn1)CCC(N1CCCCC1)C2 (stereo not drawn) [Compound 14, 5-Piperidin-1-yl-2-(pyridin-2-yl)-4,5,6,7-tetrahydro-2H-indazol-3-ol]	effectively inhibited				
CN1CCN(C2CCc3nn(-c4ccccn4)c(O)c3C2)CC1 (stereo not drawn) [Compound 16, 5-(4-Methylpiperazin-1-yl)-2-(pyridin-2-yl)-4,5,6,7-tetrahydro-2H-indazol-3-ol]	effectively inhibited			effectively inhibited	Parkinson-like behavior symptoms improved ([5]; Rota rod, pole test, hindlimb clasping): ≥ 50%; aggregation and accumulation of a-synuclein improved ([5]; striatum histopathology): ≥ 50%
CN(Cc1cccc(S(C)(=O)=O)c1)C1CCc2nn(-c3ccccn3)c(O)c2C1 (stereo not drawn) [Compound 23, 5-[Methyl(3-methylsulfonylbenzyl)amino]-2-(pyridin-2-yl)-4,5,6,7-tetrahydro-2H-indazol-3-ol]	effectively inhibited	effectively inhibited	effectively inhibited		
CN(Cc1ccc(S(C)(=O)=O)cc1)C1CCc2nn(-c3ccccn3)c(O)c2C1 (stereo not drawn) [Compound 12, 5-[(4-Methanesulfonylbenzyl)methylamino]-2-(pyridin-2-yl)-4,5,6,7-tetrahydro-2H-indazol-3-ol]	effectively inhibited			effectively inhibited	
CN(C1CCc2nn(-c3ccccn3)c(O)c2C1)C1CCCc2cccnc21 (stereo not drawn) [Compound 33, 5-[Methyl(5,6,7,8-tetrahydroquinolin-8-yl)amino]-2-(pyridin-2-yl)-4,5,6,7-tetrahydro-2H-indazol-3-ol]	effectively inhibited	effectively inhibited	effectively inhibited		

From patent publication EP4501920A1, “NOVEL PYRAZOLE DERIVATIVES” (Aptabio Therapeutics Inc., priority 2022, dated 2023)
